Measured values published in patent US20100261710A1, “HDAC Inhibitors” (ARQULE, INC., priority 2007, published 2010).

Assays:
HDAC1 = target: T1, HDAC1 (Homo sapiens, UniProt Q13547); assay: HDAC-1 immunocapture fluorescent biochemical assay (HeLa lysate); conditions: HDAC1 immunocaptured from HeLa extract
T1 construct: cell extract containing HDAC (HeLa in these experiments); endogenous in cells; host or cells: HeLa cell extract
Procedure: The HDAC-1 assay represents a novel immunocapture assay procedure. […] The HDAC1 is captured on a protein A coated plate using HDAC1 specific antibody, and is then allowed to react with the substrate.
This assay in performed in four general steps. In the first step (FIG. 1A), cell extract containing HDAC (HeLa in these experiments) is incubated with (cell signaling) rabbit polyclonal HDAC1 antibody (rabbit IgG antibody is used for background control) to allow binding of the enzyme to the antibody. In the second step, the complexed mixture is added to the protein A covered plate which captures the antibody. In the third step, after washing away unbound proteins, substrate and inhibitor are added and deacetylation is allowed to occur. […] The plate is then read on either Victor or Perkin Elmer Envision system using Umbilliferone filter set.
• A. HeLa extract complexed with HDAC1 antibody working solution (in DPBS):
Compound working solution (in HDAC buffer):
Compounds diluted in assay buffer at 2× Screening concentration. • D. Activator solution:
Trypsin (10 mg/mL) diluted 1:1600 in assay buffer containing 4 μM TSA.
Complexing of extract with antibody was carried out at room temperature for 60 min with rocking. Binding of complexes onto protein A plate was carried out at room temperature for 60 min in 50 μL. Reaction was carried out in […], in the protein A plate for 60 minutes at 37° C. 40 μL of the reaction was moved into white ½ area plate for activation and reading.
• 1. Set PIERCE Protein A plate to block with 150 μof 5% BSA in TB ST for 60 min at room temperature. • 2. […] Dilute complexes further ([…]) by addition of 3.5 mL of PBS (final total volume of 5 mL). • 4. Wash blocked protein A plate prior to complex addition with TBST. • 5. Add 50 μl of diluted complexes to Protein A plate and incubate for 60 min at room temperature. • 6. Wash plate with TB ST. • 7. Add 25 μl of diluted compounds (in HDAC buffer) to each well and incubate for 10 min at room temperature. • 8. […] Move 40 μl of reaction to a white plate and add 20 μl of activator/developer solution, mix thoroughly. • 10. Read plate.

[1] = system: HDACs (nuclear HeLa extract); assay: pan-HDAC fluorescent biochemical assay with nuclear HeLa extract; conditions: HDAC peptide substrate, 60 min at 37° C.
Procedure: Substrate was synthesized in house. Stocks were prepared in DMSO (10 mM).
Compound working solution: Compounds dissolved in assay buffer at 4× Screening concentration. Activator solution: Trypsin (10 mg/mL) diluted 1:1600 in Assay Buffer containing 4 μM TSA.
Total reaction Volume: 40 μL
Reaction was allowed to run for 60 minutes at 37° C.
2. Combine in a white ½ area well plate: 10 μl of 4× compound (or buffer), 15 μl of substrate and 15 μl of HeLa extract. Mix well
3. Incubate at 37° C. for 60 min.
4. Prepare Activator solution. Dilute Trypsin 1:1600 in Assay Buffer+4μM TSA. 20 μl is needed per assay point.
5. Add 20 μl of prepared activator solution and mix thoroughly.
The hydroxamic-acid based compounds of the present invention were tested in the biochemical assay for their pan-HDAC inhibitory activity.

HCT-116 cells = assay: MTS cell viability assay, HCT-116; assay type: cell-based; conditions: Homo sapiens, HCT-116, 72 h, read-out: HCT-116, IG50, MTS (uM)
Procedure: (§1) The MTS cell viability assay was used to determine the potency of proliferation inhibitor with. MTS measures mitochondrial dehydrogenase activity and serves as surrogate readout for the number of viable cells.
(§2) For MTS assay, cells were plated in 96-well plates at 2000 cells per well and incubated in the presence of compounds for 72 hr. MTS was added to each well as instructed by manufacture (Promega) and plates were incubated for 4 h at 37° C. The absorbance of each well was measured at 490 nm using a microplate reader.

HDAC2 = target: T2, HDAC2 (Homo sapiens, UniProt Q92769); assay: HDAC isoform assay, HDAC2; assay type: biochemical; conditions: substrate KI-177; read-out: HDAC2, IC50, ELISA (KI-177)
T2 construct: purchased BioMol

HDAC3 = target: T3, HDAC3 (Homo sapiens, UniProt O15379); assay: HDAC isoform assay, HDAC3; assay type: biochemical; conditions: substrate KI-177; read-out: HDAC3, IC50, ELISA (KI-177)
T3 construct: purchased BioMol
Procedure: The assay measures the ability of a small molecule to inhibit deacetylation of the substrate. Activator reagent recognizes the substrate only if the lysine has been deacetylated.
This homogeneous assay in performed in the same well without washing steps. The HDAC source, nuclear HeLa extract, is incubated with substrate in the presence of an inhibitor compound. At the end of the reaction time, activator solution, containing Trypsin and TSA, is added to stop the deacetylation reaction, and cleave the amino-coumarin from the deacetylated substrate. The plate is then read on either a Perkin Elmer Victor or Envision system using Umbilliferone filter set. […] The signal is directly proportional to the activity of HDACs and compound inhibition of HDAC is monitored by a decrease in signal.

HH cells = assay: MTS cell viability assay, HH; assay type: cell-based; conditions: Homo sapiens, 72 hr, read-out: HH, IG50, MTS
Procedure: The MTS cell viability assay was used to determine the potency of proliferation inhibitor with. MTS measures mitochondrial dehydrogenase activity and serves as surrogate readout for the number of viable cells. The protocol described below is based upon the “CellTiter 96 Aqueous Non-Radioactive Cell Proliferation Assay” sold by Promega (Technical Bulletin No. 169).
as §2

MJ cells = assay: MTS cell viability assay, MJ; assay type: cell-based; conditions: 72 hr, read-out: MJ, IG50, MTS
Procedure: as §1, §2

HDAC5 = HDAC5 (Homo sapiens, UniProt Q9UQL6); assay: HDAC isoform assay, HDAC5
HDAC6 = target: T4, HDAC6 (Homo sapiens, UniProt Q9UBN7); assay: HDAC isoform assay, HDAC6
T4 sequence (Q9UBN7 1-1215): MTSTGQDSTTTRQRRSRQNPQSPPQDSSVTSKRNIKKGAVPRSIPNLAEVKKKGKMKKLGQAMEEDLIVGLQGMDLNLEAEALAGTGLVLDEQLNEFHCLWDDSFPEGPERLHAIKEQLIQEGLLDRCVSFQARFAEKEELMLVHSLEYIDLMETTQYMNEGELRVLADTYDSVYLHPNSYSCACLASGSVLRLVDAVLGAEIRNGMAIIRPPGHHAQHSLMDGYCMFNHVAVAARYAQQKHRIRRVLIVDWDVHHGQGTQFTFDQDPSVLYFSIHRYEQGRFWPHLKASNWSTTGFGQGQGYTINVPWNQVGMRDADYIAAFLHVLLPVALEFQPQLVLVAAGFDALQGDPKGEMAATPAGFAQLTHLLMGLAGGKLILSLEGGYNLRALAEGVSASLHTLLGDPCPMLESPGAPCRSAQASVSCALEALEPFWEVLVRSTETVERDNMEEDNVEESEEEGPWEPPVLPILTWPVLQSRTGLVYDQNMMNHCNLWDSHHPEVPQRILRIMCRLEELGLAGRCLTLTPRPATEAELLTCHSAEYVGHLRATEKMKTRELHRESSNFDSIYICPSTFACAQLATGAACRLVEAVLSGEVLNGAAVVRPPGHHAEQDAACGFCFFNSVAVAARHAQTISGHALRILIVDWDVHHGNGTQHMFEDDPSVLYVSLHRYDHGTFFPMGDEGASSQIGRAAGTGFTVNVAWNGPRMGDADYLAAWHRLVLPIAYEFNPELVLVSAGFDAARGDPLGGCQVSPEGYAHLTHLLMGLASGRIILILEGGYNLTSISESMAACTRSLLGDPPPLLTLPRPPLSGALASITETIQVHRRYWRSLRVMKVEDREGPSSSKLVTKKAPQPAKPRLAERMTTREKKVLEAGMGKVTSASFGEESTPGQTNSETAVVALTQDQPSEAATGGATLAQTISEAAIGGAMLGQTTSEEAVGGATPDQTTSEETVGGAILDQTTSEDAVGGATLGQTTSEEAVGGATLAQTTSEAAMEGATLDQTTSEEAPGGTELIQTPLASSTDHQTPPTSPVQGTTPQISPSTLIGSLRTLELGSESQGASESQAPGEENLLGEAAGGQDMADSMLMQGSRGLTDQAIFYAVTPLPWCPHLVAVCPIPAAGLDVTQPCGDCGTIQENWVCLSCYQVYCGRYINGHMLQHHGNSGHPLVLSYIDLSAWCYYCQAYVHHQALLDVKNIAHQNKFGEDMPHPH

HDAC4 = target: T5, HDAC4 (Homo sapiens, UniProt P56524); assay: HDAC isoform assay, HDAC4; assay type: biochemical; conditions: substrate KI-177; read-out: HDAC4, IC50, ELISA (KI-177)
T5 construct: purchased BioMol

HDAC8 = target: T6, HDAC8 (Homo sapiens, UniProt Q9BY41); assay: HDAC isoform assay, HDAC8
T6 sequence (Q9BY41 1-377): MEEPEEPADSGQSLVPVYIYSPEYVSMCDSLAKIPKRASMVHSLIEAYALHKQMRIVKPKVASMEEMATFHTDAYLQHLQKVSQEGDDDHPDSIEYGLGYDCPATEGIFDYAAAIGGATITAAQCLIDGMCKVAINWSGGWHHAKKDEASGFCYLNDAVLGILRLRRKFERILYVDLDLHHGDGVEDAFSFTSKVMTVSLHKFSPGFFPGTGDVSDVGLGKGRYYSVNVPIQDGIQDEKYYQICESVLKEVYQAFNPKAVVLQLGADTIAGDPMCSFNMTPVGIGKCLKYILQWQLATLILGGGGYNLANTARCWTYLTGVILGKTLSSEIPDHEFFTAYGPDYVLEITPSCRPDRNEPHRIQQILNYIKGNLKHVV

T1 sequence (Q13547 whole entry): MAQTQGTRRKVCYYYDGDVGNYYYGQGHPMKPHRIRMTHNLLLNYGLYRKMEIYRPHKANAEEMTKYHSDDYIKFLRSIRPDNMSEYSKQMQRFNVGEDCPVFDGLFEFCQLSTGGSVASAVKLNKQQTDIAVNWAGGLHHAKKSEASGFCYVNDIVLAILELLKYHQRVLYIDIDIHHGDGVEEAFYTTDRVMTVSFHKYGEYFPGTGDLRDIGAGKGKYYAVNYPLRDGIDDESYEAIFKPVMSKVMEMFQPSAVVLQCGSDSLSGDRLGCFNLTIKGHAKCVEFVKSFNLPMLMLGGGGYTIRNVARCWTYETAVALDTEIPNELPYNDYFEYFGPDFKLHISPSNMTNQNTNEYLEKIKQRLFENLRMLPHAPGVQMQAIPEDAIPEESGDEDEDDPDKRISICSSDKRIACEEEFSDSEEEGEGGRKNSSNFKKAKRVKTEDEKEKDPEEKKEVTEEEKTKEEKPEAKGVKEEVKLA
T2 sequence (Q92769 whole entry, canonical isoform): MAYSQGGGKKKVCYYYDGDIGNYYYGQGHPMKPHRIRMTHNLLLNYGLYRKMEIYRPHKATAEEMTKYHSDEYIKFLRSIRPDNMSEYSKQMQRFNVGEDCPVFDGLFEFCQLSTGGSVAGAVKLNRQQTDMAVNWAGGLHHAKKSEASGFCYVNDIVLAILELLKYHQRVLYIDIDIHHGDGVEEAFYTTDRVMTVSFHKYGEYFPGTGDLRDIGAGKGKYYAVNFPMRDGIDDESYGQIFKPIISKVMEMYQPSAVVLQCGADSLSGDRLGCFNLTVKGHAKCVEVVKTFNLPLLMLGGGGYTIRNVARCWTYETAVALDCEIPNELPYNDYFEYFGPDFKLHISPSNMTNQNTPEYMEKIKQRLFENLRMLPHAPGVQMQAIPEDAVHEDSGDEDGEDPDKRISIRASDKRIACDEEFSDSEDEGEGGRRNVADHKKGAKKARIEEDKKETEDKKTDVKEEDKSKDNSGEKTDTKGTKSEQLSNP
T3 sequence (O15379 whole entry, canonical isoform): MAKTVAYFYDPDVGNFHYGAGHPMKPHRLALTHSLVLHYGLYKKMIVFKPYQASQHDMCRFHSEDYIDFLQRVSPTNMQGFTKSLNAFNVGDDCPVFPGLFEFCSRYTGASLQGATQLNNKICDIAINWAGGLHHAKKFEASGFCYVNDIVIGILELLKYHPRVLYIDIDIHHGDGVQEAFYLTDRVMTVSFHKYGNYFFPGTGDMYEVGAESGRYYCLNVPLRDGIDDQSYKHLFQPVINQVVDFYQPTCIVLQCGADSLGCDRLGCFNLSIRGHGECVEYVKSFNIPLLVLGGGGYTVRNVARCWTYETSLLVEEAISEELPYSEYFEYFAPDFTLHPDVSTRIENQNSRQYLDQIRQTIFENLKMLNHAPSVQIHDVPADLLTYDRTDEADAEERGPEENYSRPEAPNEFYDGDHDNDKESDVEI
T3 sequence (O75376 395-489 partner limits assumed): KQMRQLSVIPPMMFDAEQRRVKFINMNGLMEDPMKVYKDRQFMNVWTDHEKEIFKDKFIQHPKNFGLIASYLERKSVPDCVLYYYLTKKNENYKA
T5 sequence (P56524 whole entry, canonical isoform): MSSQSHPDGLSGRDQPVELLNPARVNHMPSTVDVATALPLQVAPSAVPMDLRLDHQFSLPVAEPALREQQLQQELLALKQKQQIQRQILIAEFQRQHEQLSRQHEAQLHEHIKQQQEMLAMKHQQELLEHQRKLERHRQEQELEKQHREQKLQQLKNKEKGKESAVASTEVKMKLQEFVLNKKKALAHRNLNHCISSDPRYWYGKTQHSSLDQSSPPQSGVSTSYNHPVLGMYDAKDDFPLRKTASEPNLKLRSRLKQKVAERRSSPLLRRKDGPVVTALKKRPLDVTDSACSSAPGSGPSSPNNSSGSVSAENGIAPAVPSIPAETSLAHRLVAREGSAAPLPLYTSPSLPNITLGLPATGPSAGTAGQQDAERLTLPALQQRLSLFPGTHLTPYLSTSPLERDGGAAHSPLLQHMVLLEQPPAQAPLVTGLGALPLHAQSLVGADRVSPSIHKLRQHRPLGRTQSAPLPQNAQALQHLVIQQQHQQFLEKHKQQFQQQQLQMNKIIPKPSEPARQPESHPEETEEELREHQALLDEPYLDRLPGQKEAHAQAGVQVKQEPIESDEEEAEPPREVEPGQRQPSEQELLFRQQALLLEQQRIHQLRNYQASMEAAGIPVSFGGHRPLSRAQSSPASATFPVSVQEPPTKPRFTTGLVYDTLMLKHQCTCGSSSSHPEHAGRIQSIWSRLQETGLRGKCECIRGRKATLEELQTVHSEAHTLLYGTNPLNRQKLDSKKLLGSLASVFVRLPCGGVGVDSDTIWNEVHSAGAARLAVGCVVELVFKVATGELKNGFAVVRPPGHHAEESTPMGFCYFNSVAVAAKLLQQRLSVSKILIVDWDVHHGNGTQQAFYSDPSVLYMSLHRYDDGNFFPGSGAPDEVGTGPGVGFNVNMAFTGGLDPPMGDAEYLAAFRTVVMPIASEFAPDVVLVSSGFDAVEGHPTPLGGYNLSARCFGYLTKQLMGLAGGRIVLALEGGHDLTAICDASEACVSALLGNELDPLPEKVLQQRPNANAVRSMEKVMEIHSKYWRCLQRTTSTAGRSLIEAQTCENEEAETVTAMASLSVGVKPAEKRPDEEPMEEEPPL
Chain of HDAC5 (Q9UQL6 whole entry, canonical isoform): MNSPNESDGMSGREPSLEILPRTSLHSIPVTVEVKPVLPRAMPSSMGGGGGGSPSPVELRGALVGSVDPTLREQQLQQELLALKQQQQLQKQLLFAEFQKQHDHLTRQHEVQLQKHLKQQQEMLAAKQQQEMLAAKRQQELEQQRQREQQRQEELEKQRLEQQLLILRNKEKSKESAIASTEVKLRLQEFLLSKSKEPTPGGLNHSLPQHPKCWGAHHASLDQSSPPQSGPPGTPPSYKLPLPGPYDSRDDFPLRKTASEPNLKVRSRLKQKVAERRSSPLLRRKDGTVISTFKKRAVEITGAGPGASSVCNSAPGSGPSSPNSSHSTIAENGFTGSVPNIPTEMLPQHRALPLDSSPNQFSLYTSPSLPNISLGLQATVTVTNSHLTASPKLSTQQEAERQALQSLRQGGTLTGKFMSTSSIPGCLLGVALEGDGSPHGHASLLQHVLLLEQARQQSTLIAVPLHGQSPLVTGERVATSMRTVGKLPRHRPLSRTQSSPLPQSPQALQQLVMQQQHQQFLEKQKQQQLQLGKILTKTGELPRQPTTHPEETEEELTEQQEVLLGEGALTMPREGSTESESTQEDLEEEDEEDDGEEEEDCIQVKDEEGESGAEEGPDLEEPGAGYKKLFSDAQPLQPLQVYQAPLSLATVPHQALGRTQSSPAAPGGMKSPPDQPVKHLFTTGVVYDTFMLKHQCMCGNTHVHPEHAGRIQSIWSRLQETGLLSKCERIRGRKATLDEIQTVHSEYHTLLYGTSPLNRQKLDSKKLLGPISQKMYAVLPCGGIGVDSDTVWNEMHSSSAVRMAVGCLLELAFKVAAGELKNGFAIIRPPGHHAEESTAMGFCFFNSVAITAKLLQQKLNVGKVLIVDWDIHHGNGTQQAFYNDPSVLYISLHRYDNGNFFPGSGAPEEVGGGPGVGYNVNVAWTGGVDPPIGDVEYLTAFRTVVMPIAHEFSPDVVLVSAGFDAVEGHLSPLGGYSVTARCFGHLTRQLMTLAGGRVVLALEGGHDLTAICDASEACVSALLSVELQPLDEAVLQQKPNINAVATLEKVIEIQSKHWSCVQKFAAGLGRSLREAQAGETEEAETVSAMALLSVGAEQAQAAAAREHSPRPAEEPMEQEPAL

Compound: O=C(CCCCCCCNC(=O)c1cn2c3c(cccc13)CCC2)NO
- melting point: 174 to 176 °C

Compound: O=C(CCCCNC(=O)c1cn2c3c(cccc13)CCC2)NO [compound 5, N-[5-(hydroxyamino)-5-oxopentyl]-5,6-dihydro-4H-pyrrolo[3,2,1-ij]quinoline-1-carboxamide]
- IC50 (HDAC1): 583 nM
- IC50 [1]: 809 nM
- IC50 (HCT-116 cells): 5.81 µM
- melting point: 179 to 181 °C

Compound: O=C(NO)c1ccc(CNC(=O)c2cn3c4c(cccc24)CCC3)cc1 [compound 6, N-{4-[(hydroxyamino)carbonyl]benzyl}-5,6-dihydro-4H-pyrrolo[3,2,1-ij]quinoline-1-carboxamide]
- IC50 (HDAC2): 3000 nM
- IC50 (HDAC3): 26.5 nM
- IC50 [1]: 70.8 nM
- IC50 (HCT-116 cells): 0.457 µM
- IC50 (HH cells): 91 nM
- IC50 (MJ cells): 580 nM
- melting point: 191 to 192 °C
- IC50 (HDAC5): 36.9 nM
- IC50 (HDAC6): 7.82 nM

Compound: O=C(CCCCCCN(Cc1ccccc1)C(=O)c1cn2c3c(cccc13)CCC2)NO [compound 14, N-benzyl-N-[7-(hydroxyamino)-7-oxoheptyl]-5,6-dihydro-4H-pyrrolo[3,2,1-ij]quinoline-1-carboxamide]
- IC50 [1]: 780 nM
- IC50 (HCT-116 cells): 3.8 µM
- melting point: 71 to 73 °C

Compound: CC(C)(C)OC(=O)N1CCn2cc(C(=O)NCc3ccc(C(=O)NO)cc3)c3cccc(c32)C1 [compound 15, tert-butyl 7-{[4-(hydroxycarbamoyl)benzyl]carbamoyl}-3,4-dihydro[1,4]diazepino[6,7,1-hi]indole-2(1H)-carboxylate]
- IC50 (HDAC1): 492 nM
- IC50 (HDAC2): 10000 nM
- IC50 (HDAC3): 518 nM
- IC50 (HDAC4): 791 nM
- IC50 [1]: 505 nM
- IC50 (HDAC6): 203 nM
- IC50 (HDAC8): 3450 nM

Compound: O=C(Cc1ccc(NC(=O)c2cn3c4c(cccc24)CCC3)cc1)NO [compound 16, N-{4-[2-(hydroxyamino)-2-oxoethyl]phenyl}-5,6-dihydro-4H-pyrrolo[3,2,1-ij]quinoline-1-carboxamide]
- IC50 [1]: 2000 nM
- melting point: 199 to 202 °C

Compound: CC(=O)CCC1CCN(C(=O)c2cn3c4c(cccc24)CCC3)CC1 [compound 19, 4-[1-(5,6-dihydro-4H-pyrrolo[3,2,1-ij]quinolin-1-ylcarbonyl)piperidin-4-yl]butan-2-one]
- IC50 [1]: 20000 nM

Compound: Nc1ccccc1NC(=O)CCCCCCNC(=O)c1cn2c3c(cccc13)CCC2 [compound 20, N-{7-[(2-aminophenyl)amino]-7-oxoheptyl}-5,6-dihydro-4H-pyrrolo[3,2,1-ij]quinoline-1-carboxamide]
- IC50 [1]: 4390 nM
- melting point: 144 to 145 °C

Compound: Nc1cc(Cl)c(Cl)cc1NC(=O)CCCCCCNC(=O)c1cn2c3c(cccc13)CCC2 [compound 21, N-{7-[(2-amino-4,5-dichlorophenyl)amino]-7-oxoheptyl}-5,6-dihydro-4H-pyrrolo[3,2,1-ij]quinoline-1-carboxamide]
- IC50 [1]: 15500 nM
- melting point: 124 to 125 °C

Compound: COc1cccc(-c2cn3cc(C(=O)NCCCCCCC(=O)NO)sc3n2)c1 [compound 22, N-[7-(hydroxyamino)-7-oxoheptyl]-6-(3-methoxyphenyl)imidazo[2,1-b][1,3]thiazole-2-carboxamide]
- IC50 [1]: 487 nM
- melting point: 209 to 211 °C

Compound: O=C(CCCCCCNC(=O)c1cc2cccc3c2n1CCC3)NO [compound 23, N-[7-(hydroxyamino)-7-oxoheptyl]-5,6-dihydro-4H-pyrrolo[3,2,1-ij]quinoline-2-carboxamide]
- IC50 (HDAC1): 17 nM
- IC50 (HDAC2): 3000 nM
- IC50 (HDAC3): 37 nM
- IC50 (HDAC4): 28 nM
- melting point: 160 to 161 °C
- IC50 (HDAC6): 43 nM
